Data published in US20200093764A1, “TREATMENT OF ASTHMA WITH CYSTEAMINE” (CHILDREN'S HOSPITAL MEDICAL CENTER, priority 2017, published 2020).

Columns and labels:
Type in all cases: in vivo
[1] = test system: WT BALB/c and VNN1 KO mice; test: Prophylactic cysteamine treatment in HDM-challenged experimental asthma model (Example 1); conditions: for airway hyper-responsiveness (AHR) development: mice, oral or IP administration, methacholine challenge, FlexiVent dynamic resistance; for asthma development: cysteamine hydrochloride 50 mg/kg i.p. every day, HDM 25 μg i.t. 3 times a week for 3 weeks
Text: Steroid non-responsive mice (e.g., vanin 1 (VNN1) knock-out (KO) mice) and normal mice (e.g., wild type (WT) BALB/c mice) were used in an experimental asthma model. Since VNN1 KO mice lack tissue cysteamine, these mice were used to determine whether replacement of cysteamine would be sufficient to restore responsiveness to a steroid treatment.
WT BALB/c and VNN1 KO mice were started on cysteamine replacement treatment (e.g., as illustrated in FIG. 1A) one day prior to the start of intratracheal (i.t.) challenges. Mice then received one intraperitoneal (i.p.) injection of cysteamine hydrochloride (50 mg/kg) or saline every day. Mice were challenged 3 times a week for 3 weeks to an allergen (e.g., house dust mite (HDM, 25 μg in 50 μl saline)) or saline. A subset of mice from each group received a corticosteroid (e.g., dexamethasone (3 mg/kg)) treatment during the last 4 days of the experiment.
To determine the effectiveness of the treatment, airway responsiveness was measured as follows. 24 hours after the last challenge, invasive measurements were made with the FlexiVent apparatus (SCIREQ). Mice were anesthetized with ketamine, xylazine, and acepromazine (100, 20, and 10 mg/mL, respectively, mixed at a ratio of 4:1:1). Mouse tracheas were cannulated with a 19-gauge blunt needle, and the mice were ventilated at 150 breaths/min and 3.0 cm H2O positive end-expiratory pressure. Two total lung capacity perturbations were then performed for airway recruitment before baseline measurement, and subsequent methacholine challenges were performed. Dynamic resistance was assessed after exposure to increasing concentrations of aerosolized methacholine (0, 12.5 and 25 mg/mL). The average of the 3 highest dynamic resistance values with a coefficient of determination of 0.9 or greater (as determined by using FlexiVent software) was used to determine the dose-response curve.

WT BALB/c mice [2] = test: Cysteamine therapeutic treatment after HDM-induced asthma is established (Example 2); conditions: cysteamine 50 mg/kg for seven days
Protocol: WT BALB/c mice underwent 6 intratracheal challenges to an allergen (e.g., HDM (25 μg)) to induce asthma development. Control mice underwent 6 intratracheal challenges to saline instead. The next day a subset of mice received cysteamine (50 mg/kg) treatment for seven days (on challenge days, mice received treatment 30 minutes prior to challenge). See FIG. 2A for the treatment and challenge protocol. The mice were sacrificed 24 hours after the last challenge.
To determine the effectiveness of the treatment, airway responsiveness was measured as follows. 24 hours after the last challenge, invasive measurements were made with the FlexiVent apparatus (SCIREQ). Dynamic resistance was assessed after exposure to increasing concentrations of aerosolized methacholine ([…]).
Bronchoalveolar lavage was performed by means of tracheal cannulation. Lungs were lavaged with 1 mL of 1×HBSS. The collected BALF was centrifuged, and total cell numbers were counted with a hemocytometer. Cells were spun onto slides and stained with the HEMA3 stain set. After the slides were cover slipped and de-identified, 200 cells were counted, and the total number of each cell type was calculated.
To observe Th2, Th17, and Th1 cytokine production, lung cells were ex vivo stimulated with phorbol 12-myristate 13-acetate (PMA)+ionomycin (0.05 μg/mL and […], respectively) for an hour prior to the addition of Brefeldin-A for an additional 2.5 hours. Cells were stained with combinations of CD4-FITC, γδT-cell receptor-PE/Cy7, CD3-AF700, CD44-Pacific Blue, and Live/dead-BV510. After fixation and permeabilization cells were intracellularly stained with IL-13-PE, IL-17A-AF647, IFN-γ-PerCP5.5. Image an data acquisition was done on a FACSCanto III and analyzed with FlowJo software.

[3] = Drug kinetics of cysteamine in mouse serum (Example 4)
Text: FIG. 4A is a table showing drug kinetics in mouse serum after administration of cysteamine. FIG. 4B is a chart showing the cysteamine concentrations in μmol/L over the time after the ends of cysteamine infusion in minutes.

WT BALB/c mice [4] = test: Lower doses of cysteamine (Cystagon) to block allergen-induced asthma exacerbation (Example 3)
Protocol: Control mice underwent 9 intratracheal challenges to saline instead. Once asthma was established, a subset of mice received cysteamine (e.g., Cystagon®, which corresponds to cysteamine bitartrate) at various doses (6.25, 12.5, 25, or 50 mg/kg) or saline vehicle intraperitoneal (i.p.) treatment 3 times every day for 2 weeks. On the 14th day, all mice received a single HDM recall challenge. Mice received scheduled i.p. treatment prior to airway responsiveness measurement.
To determine the effectiveness of the treatment, airway responsiveness was measured as follows. 24 hours after the last challenge invasive measurements were made with the FlexiVent apparatus (SCIREQ). Dynamic resistance was assessed after exposure to increasing concentrations of aerosolized methacholine (0, 6.25, 12.5, 25, and 50 mg/kg).
To observe Th2/Th17 cytokine production, lung cells were ex vivo stimulated with phorbol 12-myristate 13-acetate (PMA)+ionomycin (0.05 μg/mL and 0.50 μg/mL, respectively) for an hour prior to the addition of Brefeldin-A for an additional 2.5 hours. Cells were stained with combinations of CD4-FITC, γδT-cell receptor-PE/Cy7, CD3-AF700, CD44-Pacific Blue, and Live/dead-BV510. After fixation and premeabilization cells were intracellularly stained with IL-13-PE, IL-17A-AF647, IFN-γ-PerCP5.5. Image and data acquisition was done on a FACSCanto III and analyzed with FlowJo software.

WT BALB/c mice [5] = test: Oral cysteamine treatment in HDM-induced asthma with recall challenge (Example 6)
Protocol: Control mice underwent 9 intratracheal challenges to saline instead. Once asthma was established, a subset of mice received cysteamine (6.25 or 12.5 mg/kg) or saline vehicle oral treatment 4 times a day for 2 weeks. On the 14th day, all mice received a single HDM recall challenge. Mice received scheduled oral treatment prior to airway responsiveness measurement. To determine the effectiveness of the treatment, airway responsiveness was measured as follows. 24 hours after the last challenge invasive measurements were made with the FlexiVent apparatus (SCIREQ). Dynamic resistance was assessed after exposure to increasing concentrations of aerosolized methacholine (0, 6.25, 12.5, 25, and 50 mg/kg). Bronchoalveolar lavage was performed by means of tracheal cannulation. Lungs were lavaged with 1 mL of 1×HBSS. The collected BALF was centrifuged, and total cell numbers counted with a hemocytometer. Lungs were removed, and the upper right lobe was minced and incubated at 37° C. for 30 minutes in 1 mL of RPMI 1640 containing Liberase TL (0.5 mg/mL) and DNAse I (0.5 mg/mL). Lung cells were passed through a 70-μm cell strainer with a syringe rubber, and the strainer was washed with 5 mL of RPMI plus DNAse I media. Cells were centrifuged and re-suspended in 1 mL of PBS plus 0.5% BSA plus 2 mmol/L EDTA before being counted on a hemocytometer.

WT BALB/c mice [6] = test: Cysteamine vs. corticosteroid (dexamethasone) in HDM-induced asthma (Example 5)
Protocol: WT BALB/c mice underwent 6 intratracheal challenges to an allergen (e.g., HDM (25 μg)) to induce asthma development. Control mice underwent 6 intratracheal challenges to saline instead. When asthma was established, a subset of mice received cysteamine (50 mg/kg) treatment for seven days (on challenge days, mice received treatment 30 minutes prior to challenge). A subset of mice received corticosteroid (e.g., dexamethasone) treatment (3 mg/kg) during the last four days.
To determine the effectiveness of the treatment, airway responsiveness was measured as follows. 24 hours after the last challenge, invasive measurements were made with the FlexiVent apparatus (SCIREQ). Dynamic resistance was assessed after exposure to increasing concentrations of aerosolized methacholine (0, 12.5, and 50 mg/kg).
To observe Th2/Th17 cytokine production, lung cells were ex vivo stimulated with phorbol 12-myristate 13-acetate (PMA)+ionomycin (0.05 μg/mL and […], respectively) for an hour prior to the addition of Brefeldin-A for an additional two and a half hours. Cells were stained with combinations of CD4-FITC, γδT-cell receptor-PE/Cy7, CD3-AF700, CD44-Pacific Blue, and Live/dead-BV510. After fixation and premeabilization cells were intracellularly stained with IL-13-PE, IL-17A-AF647, IFN-γ-PerCP5.5. Image and data acquisition was done on a FACSCanto III and analyzed with FlowJo software.

[7] = mice with asthma, Cystagon i.p. for 2 weeks

In the case of `NCCSSCCN` [cystamine], the “airway hyper-responsiveness (AHR) development” value (“airway hyper-responsiveness” for short) [1] is reported as “blocked airway hyper-responsiveness (AHR) development”.

In the case of `NCCS` [Cysteamine, 2-aminoethanethiol], the asthma occurrence (WT BALB/c mice [2]; mice with asthma (6 i.t. HDM challenges)) is reported as “significantly decrease asthma occurrence”, the airway inflammation (WT BALB/c mice [2]; mice with asthma) is reported as “reduced airway inflammation” and the “presence of eosinophils and neutrophils in the bronchoalveolar lavage fluid” value (WT BALB/c mice [2]; mice with asthma) is reported as “decreased the presence of eosinophils and neutrophils”. The “presence of pathogenic T effector populations (Th2/Th17) in the lungs” value (WT BALB/c mice [2]; mice with asthma, flow cytometry after PMA+ionomycin) was “reduction in the presence of pathogenic T effector populations (Th2/Th17)”, the “airway hyper-responsiveness” value (WT BALB/c mice [2]; mice with asthma, methacholine challenge) was “blocked airway hyper-responsiveness (AHR) development” and the “cysteamine concentration in mouse serum in the time after infusion ended” value ([3]; mouse serum, after end of cysteamine infusion) was “rapidly degraded”. For the same compound, the half-life ([3]; stated in Example 3 results as reason for q.i.d. dosing) was “short half-life”, the “reducing AHR” value (WT BALB/c mice [4]; 6.25 mg/kg dose, Cystagon i.p. for 2 weeks, HDM recall challenge) was “effective at reducing AHR” and the “dose at which maximal effectiveness on AHR was achieved” value (WT BALB/c mice [4]; Cystagon i.p. for 2 weeks, doses tested 6.25, 12.5, 25, 50 mg/kg) was 12.5 mg/kg/day. The “presence of eosinophils and neutrophils in the bronchoalveolar lavage fluid” value (WT BALB/c mice [4]; cysteamine at 6.25, 12.5, and 50 mg/kg, i.p. for 2 weeks) was “significantly decreased the presence of eosinophils and neutrophils”, the “blocking AHR” value (WT BALB/c mice [4]; mice with asthma (9 i.t. HDM), Cystagon (cysteamine bitartrate) 6.25-50 mg/kg i.p. 3 times every day for 2 weeks, HDM recall challenge) was “effective at blocking AHR” and the airway inflammation (WT BALB/c mice [4]; [7]) was “reduced airway inflammation”. For the same compound, the “presence of pathogenic T effector populations (Th2/Th17) in the lungs” value (WT BALB/c mice [4]; [7]) was “significantly decreased the presence of pathogenic T effector populations (Th2/Th17)”, the AHR (WT BALB/c mice [5]; WT mice with asthma (9 i.t. HDM), cysteamine 6.25 or 12.5 mg/kg oral 4 times a day for 2 weeks, HDM recall challenge) was “decreased AHR” and the “airway inflammation (BALF counts, lung cells)” value (WT BALB/c mice [5]; WT mice with asthma, cysteamine 6.25 or 12.5 mg/kg oral 4 times a day for 2 weeks) was “decreased”. The “oral treatment compared with IP injection” value (WT BALB/c mice [5]; oral cysteamine 6.25 or 12.5 mg/kg 4 times a day for 2 weeks) was “equivalent to IP injection”, the AHR (WT BALB/c mice [6]; WT mice with asthma (6 i.t. HDM), cysteamine 50 mg/kg for seven days) was “decreased AHR” and the “presence of Th1, Th2, and Th17 cells in the lungs” value (WT BALB/c mice [6]; WT mice, cysteamine 50 mg/kg for seven days) was “significantly decreased the presence of Th1, Th2, and Th17 cells”. The “difference between the cysteamine and dexamethasone treatment groups” value (WT BALB/c mice [6]; cysteamine 50 mg/kg seven days vs dexamethasone 3 mg/kg last four days) was “no significant differences”, the asthma development ([1]; VNN1 KO mice) was “significantly prevented asthma” and the “airway hyper-responsiveness” value [1] was “blocked airway hyper-responsiveness (AHR) development”. The asthma development ([1]; normal (WT BALB/c) mice) was “significantly prevented asthma”.
